# Data published in PMC9174238, “pH- and concentration-dependent supramolecular assembly of a fungal defensin plectasin variant into helical non-amyloid fibrils” (Nature Communications, 2022).
# Where a SMILES comes first, the peptide text is derived from it. Bridges are numbered along the chain shown (N, C = ends).
# Columns and labels:
# [1] = biological target: plectasin variant D9S Q14K V36L (PPI42); experiment: dynamic light scattering; pH series, phosphate buffer above pH 6, 2 mg/mL (450 µM), 25 °C
# [2] = Thioflavin T fluorescence measurements; type: physicochemical; settings: Gly-HCl pH 2.5; dissolved; c=2 mg/mL; excitation 440±10 nm, emission 490±10 nm
# Procedure: Plectasin stock solutions were dialyzed against 10 mM acetate buffer pH 5.5. A final concentration of 2 mg/mL (450 µM) was obtained by dilution with the dialysis buffer and ThT was added to a final concentration of 20 µM. The fluorescence was monitored after each cycle at 490 ± 10 nm with excitation at 440 ± 10 nm with a gain of 1000 using FLOUstar Omega multi-mode microplate reader (BMG Labtech). Omega software was used to control the plate reader and export the data. Insulin was fibrillated at 40 °C with agitation (600 rpm) for 150 s every 5 min[79]. Additionally, the fluorescence of a sample containing insulin fibrils at a protein concentration of 2 mg/mL was compared to freshly dialyzed plectasin in 10 mM acetate buffer pH 3.5 and pH 5.5 and a sample diluted into 10 mM acetate buffer pH 5.5 and 10 mM phosphate buffer pH 6.5, equilibrated for 12 h was compared (end-point measurement).
# [3] = cited from earlier work
# Description: The structure of plectasin is stabilized by three disulfide bridges (C4-C30; C15-C37; C19-C39), which is typical for this type of defensins and leads to high confor ...
# female NMRI mice = settings: single intravenous bolus 50 mg/kg, observed 4 days, previously performed, ref ICAAC 2006 poster F2-1166; cited from earlier work
# Description: page 11: homeostatic conditions.
# [4] = pKa by 2D 1H-1H TOCSY NMR pH titration; type: physicochemical; settings: imidazole ring protons, 50 mM phosphate buffer, 298 K
# Description: 2D ^1H–^1H TOCSY NMR spectra were acquired by sampling the FID for 117 and 14.5 milliseconds by acquiring 1024 × 128 complex data points in the direct and indirect dimensions, respectively. For these ^1H–^1H TOCSY NMR experiments, 16 transients were acquired with an inter-scan relaxation delay of 1 second. All NMR spectra were processed with ample zero filling in all spectral dimensions in Bruker Topspin 3.5 pl7 software and integrated into the same software. Data were plotted in proFit 7 (Quantum Soft). Titration curves were fitted to the Henderson-Hasselbalch equation in proFit 7 as δobs=(δA+10^pKa−pH*δHA)/(1+10^pKa−pH), where δobs is the measured chemical shift, δA is the chemical shift of the deprotonated form and δHA is the chemical shift of the protonated form. The pH of the sample was determined after the measurement.
# His16 (position 16, …) = experiment: NMR; settings: 298 K; not stated (50 mM buffer; no added salt mentioned); 50 mM phosphate according to the Fig. 6b caption. Methods: 50 mM phosphate or 50 mM acetate, with the stock dialysed against 10 mM acetate pH 3.5 and diluted into the final buffer.; Folded, disulfide-intact soluble monomer at 250 µM total protein; fibrils forming at higher pH are NMR-invisible
# His18 (position 18, …) = experiment: NMR; settings: 298 K; not stated (50 mM buffer; no added salt mentioned); 50 mM phosphate according to the Fig. 6b caption. Methods: 50 mM phosphate or 50 mM acetate, with the stock dialysed against 10 mM acetate pH 3.5 and diluted into the final buffer.; Folded, disulfide-intact soluble monomer at 250 µM total protein; fibrils forming at higher pH are NMR-invisible
molecule,measurement,setting,value
plectasin variant D9S Q14K V36L (PPI42) (peptide),fraction of medium-sized oligomers and fibrils (% mass),[1],< 2.5 % mass
Insulin: positive control known to form amyloid fibrils upon shaking at 40 °C,"Thioflavin T fluorescence (490 nm), end-point",[2],13428.8
CC[C@H](C)[C@@H]1NC(=O)[C@H](CO)NC(=O)[C@H](CCCCN)NC(=O)[C@@H]2CSSC[C@@H](C(=O)N[C@@H](Cc3ccc(O)cc3)C(=O)O)NC(=O)[C@H](CCCCN)NC(=O)[C@@H]3CSSC[C@H](NC(=O)[C@H](CCC(N)=O)NC(=O)[C@H](CCSC)NC(=O)[C@H](CC(=O)O)NC(=O)[C@H](CC(=O)O)NC(=O)[C@H](CCC(=O)O)NC(=O)[C@H](CC(=O)O)NC(=O)[C@H](Cc4c[nH]c5ccccc45)NC(=O)[C@@H]4CCCN4C(=O)CNC(=O)[C@H](CC(N)=O)NC(=O)[C@@H](NC(=O)CNC(=O)[C@H](Cc4ccccc4)NC(=O)CN)CSSC[C@H](NC(=O)[C@H](Cc4ccc(O)cc4)NC(=O)CNC(=O)CNC(=O)[C@H](CCCCN)NC(=O)[C@H](Cc4ccc(O)cc4)NC(=O)CNC(=O)[C@H](CCCCN)NC1=O)C(=O)N[C@@H](C)C(=O)N[C@@H](CCCCN)C(=O)NCC(=O)NCC(=O)N[C@@H](Cc1ccccc1)C(=O)N[C@@H](C(C)C)C(=O)N3)C(=O)N[C@@H](Cc1c[nH]cn1)C(=O)N[C@@H](CC(N)=O)C(=O)N[C@@H](Cc1c[nH]cn1)C(=O)N2 [plectasin wildtype],in vivo half-life,[3],long in vivo half-life
same,serum stability,[3],high serum stability
same,toxicity,[3],low toxicity
"CC[C@H](C)[C@@H]1NC(=O)[C@H](CO)NC(=O)[C@H](CCCCN)NC(=O)[C@@H]2CSSC[C@@H](C(=O)N[C@@H](Cc3ccc(O)cc3)C(=O)O)NC(=O)[C@H](CCCCN)NC(=O)[C@@H]3CSSC[C@H](NC(=O)[C@H](CCCCN)NC(=O)[C@H](CCSC)NC(=O)[C@H](CC(=O)O)NC(=O)[C@H](CC(=O)O)NC(=O)[C@H](CCC(=O)O)NC(=O)[C@H](CO)NC(=O)[C@H](Cc4c[nH]c5ccccc45)NC(=O)[C@@H]4CCCN4C(=O)CNC(=O)[C@H](CC(N)=O)NC(=O)[C@@H](NC(=O)CNC(=O)[C@H](Cc4ccccc4)NC(=O)CN)CSSC[C@H](NC(=O)[C@H](Cc4ccc(O)cc4)NC(=O)CNC(=O)CNC(=O)[C@H](CCCCN)NC(=O)[C@H](Cc4ccc(O)cc4)NC(=O)CNC(=O)[C@H](CCCCN)NC1=O)C(=O)N[C@@H](C)C(=O)N[C@@H](CCCCN)C(=O)NCC(=O)NCC(=O)N[C@@H](Cc1ccccc1)C(=O)N[C@@H](CC(C)C)C(=O)N3)C(=O)N[C@@H](Cc1c[nH]cn1)C(=O)N[C@@H](CC(N)=O)C(=O)N[C@@H](Cc1c[nH]cn1)C(=O)N2 [PPI42] (H-GFGCNGPWSEDDMKCHNHCKSIKGYKGGYCAKGGFLCKCY-OH; disulfide 4-30, 15-37, 19-39)",Maximum Tolerated Dose (MTD),female NMRI mice,> 50 mg/kg
same,No Observed Adverse Effect Level (NOAEL),female NMRI mice,> 50 mg/kg
same,pKa for (H16),[4],4.4
same,pKa for (H18),[4],6.4
GFGCNGPWSEDDMKCHNHCKSIKGYKGGYCAKGGFLCKCY,pKa,"His16 (position 16, …)",around 4.4
same,pKa,"His18 (position 18, …)",around 6.4
